According to patent publication US5444069A, “Imidazo-pyridine angiotensin II antagonists used to treat memory loss” (Warner-Lambert Company, priority 1994, dated 1995):

Key:
[1] = target: T1, AT2 receptor (rabbit uterus receptor preparations) (Oryctolagus cuniculus, UniProt G1T351); test: displacement of 3H-angiotensin II from rabbit uterus receptor preparations; type: binding; conditions: read-out: IC50 Values in Rabbit Uterine Preparations
T1 construct: cell membrane preparations derived from rabbit uterus and corpus luteum; from tissue; host or cells: rabbit uterus, cell membrane preparation
T1 sequence (G1T351 1-363): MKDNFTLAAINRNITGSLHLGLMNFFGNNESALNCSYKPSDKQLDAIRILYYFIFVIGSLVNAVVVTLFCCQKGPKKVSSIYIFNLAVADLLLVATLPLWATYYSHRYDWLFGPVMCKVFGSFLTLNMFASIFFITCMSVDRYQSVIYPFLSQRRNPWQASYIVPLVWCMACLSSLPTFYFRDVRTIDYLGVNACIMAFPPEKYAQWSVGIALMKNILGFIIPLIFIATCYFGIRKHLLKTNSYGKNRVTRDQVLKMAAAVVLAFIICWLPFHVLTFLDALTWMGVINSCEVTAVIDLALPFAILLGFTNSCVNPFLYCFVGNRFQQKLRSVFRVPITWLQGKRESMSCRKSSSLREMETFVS
Description: AT2 receptors are known to exist in organs of the female reproductive system. […] More specifically, AT2 receptors are densely located on granulosa cells in atretic follicles of the ovary.

[2] = target: T2, AT2 receptor (whole rat brain) (Rattus norvegicus, UniProt P35351); test: angiotensin II receptor binding in whole rat brain (DTT protocol)
T2 construct: IC50 Values in whole Rat Brain Preparations; from tissue; host or cells: whole rat brain
T2 sequence (P35351 1-363): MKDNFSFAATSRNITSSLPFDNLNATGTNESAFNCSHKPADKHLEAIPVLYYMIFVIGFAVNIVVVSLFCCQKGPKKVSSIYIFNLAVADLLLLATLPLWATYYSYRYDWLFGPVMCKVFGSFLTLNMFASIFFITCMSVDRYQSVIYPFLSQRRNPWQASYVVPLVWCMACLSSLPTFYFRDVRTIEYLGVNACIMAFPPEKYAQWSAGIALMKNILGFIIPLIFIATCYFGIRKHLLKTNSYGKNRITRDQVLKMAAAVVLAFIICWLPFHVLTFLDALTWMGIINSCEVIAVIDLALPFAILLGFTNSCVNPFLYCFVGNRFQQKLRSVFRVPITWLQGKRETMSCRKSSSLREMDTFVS
Description: Since receptor-specific binding in whole brain is low and is a mixture of two subtypes, an alternative protocol (Bennett and Snyder, Eur. J. Pharmacol., 67, 11-25) was used. This method includes DTT and thereby eliminates binding at AT1 receptors, thus-allowing evaluation of AT2 receptor events.

[3] = tested on: rat striatum acetylcholine (ACh); test: effect on rat striatal acetylcholine (ACh) levels; type: in vivo; conditions: for ACh concentration, rat striatum: vehicle 61.0 ± 2.33; for ACh, rat striatum, time course: control 65.4 ± 2.47
Procedure: ACh concentrations were determined as described below. Each
Results were analyzed by a oneway

[4] = tested on: angiotensin II receptors (AT1 and AT2), rat brain regions; test: displacement of 125I-angiotensin II from receptor preparations of rat brain regions; type: binding
Procedure: The concentration of all three antagonist compounds in these experiments is 1 μM (above the maximal effect concentration).

[5] = tested on: angiotensin II receptors (AT1/AT2) of corpus luteum; test: inhibition of 125I-angiotensin II binding, corpus luteum; parameters: species or system rabbit; conditions: 1 μM; 125I-angiotensin II; data from Warner-Lambert Co.
[6] = estrous cycles in the mature female rat; type: in vivo; conditions: for Length of cycles: Pre Rx 4; for Number of cycles observed: Pre Rx 10
Procedure: Female rats underwent vaginal smearing every morning for 5 weeks; rats with regular 4-day cycles (proestrus, estrus, metestrus, diestrus) were chosen for further study. Groups of rats (n=5) were implanted with Alzet osmotic minipumps (Model 2ML2) containing Example 1 or vehicle on the afternoon of estrus (approximately 2 PM). Drug-treated animals received 30 mg/kg/day Example I for 14 days. Cycles were continually monitored throughout the treatment period and for an additional 20 to 22 days posttreatment.
Vehicle-treated animals continued to cycle in a 4-day pattern throughout the study.

[7] = tested on: angiotensin II receptors (AT1/AT2) of granulosa cell; conditions: cited from earlier work
[8] = tested on: AT2 receptor, ovarian cells; conditions: Pucell et al., Endocrinology 1991; cited from earlier work
[9] = tested on: rat hippocampus acetylcholine (ACh); test: effect on rat hippocampal acetylcholine (ACh) levels; conditions: 30 mg/kg IP, 0.5 h; ± SEM; vehicle 23.9 ± 2.39; * p < 0.05
Procedure: Thirty minutes after dosing, the rats were sacrificed by exposure to microwave irradiation. […] Haloperidol (2 mg/kg, IP) provides a positive control.
dosing ACh concentrations were determined as described below.

[10] = effect on renal free water clearance in anesthetized dogs; conditions: for Free Water Clearance: predose -0.24 ± 0.05, mean ± SE
Description: Dogs were anesthetized with sodium pentobarbital after an overnight fast. Animals were placed on a prewarmed surgical table, intubated and prepared for renal clearance experiments. Femoral arteries were cannulated for aortic blood pressure measurements and for blood sampling. A femoral vein was cannulated and used for the infusion of inulin. A left flank incision was made to expose the kidney and ureter. An electromagnetic flow probe was placed on the left renal artery and the left ureter was cannulated for urine collection. An intrarenal infusion of 5% dextrose in water (D5W, 50 μL/min) was administered throughout the protocol except during drug treatment intervals. A priming dose of 50 mL D5W containing 200 mg/kg insulin was administered to each dog via the femoral vein catheter and then followed by a sustained infusion of inulin in D5W (15 mg/mL, 0.075 mL/min/kg).
A clearance consisted of a timed urine collection with a midpoint blood sample. […] These last two clearances were designated as postdose.
Plasma and urinary electrolytes were determined with an ion selective electrode analyzer. Urine and plasma inulin concentrations were assayed using an anthrone colorimetric method (Davidson, et al, J. Lab and Clin. Med., 1963, 62, 351-356). Renal clearances and fractional excretion were calculated using standard formulas (Vander, Renal Physiology, 4th ed, pp 44-52 (1991)).

[11] = 10 mg/kg IP, 0.5 h, ± SEM, * p < 0.05

Cc1cc(Cn2cnc3c2C[C@@H](C(=O)O)N(C(=O)C(c2ccccc2)c2ccccc2)C3)ccc1N(C)C [Example 1]
IC50 [1]: 21 nM
IC50 [2]: 200 nM
ACh concentration, rat striatum ([3]; 1 mg/kg IP, 0.5 h, ± SEM): 57.9 ± 1.86 nM/g
ACh concentration, rat striatum [3, 11]: 48.1 ± 0.99 nM/g
ACh, rat striatum, time course [3, 11]: 37.6 ± 2.10 nM/g
ACh, rat striatum, time course ([3]; 10 mg/kg IP, 1.0 h, ± SEM, * p < 0.05): 47.9 ± 2.24 nM/g
ACh, rat striatum, time course ([3]; 10 mg/kg IP, 3.0 h, ± SEM, * p < 0.05): 50.2 ± 4.53 nM/g
ACh, rat striatum, time course ([3]; 10 mg/kg IP, 6.0 h, ± SEM): 55.8 ± 4.28 nM/g
ACh, rat striatum, time course ([3]; 10 mg/kg IP, 24.0 h, ± SEM): 61.3 ± 2.30 nM/g
time of peak ACh lowering effect ([3]; 10 mg/kg, IP): 0.5 h
time for ACh levels to return to control levels ([3]; 10 mg/kg, IP, gradual return): 24 h
ACh, Striatum (Table V) ([3]; 30 mg/kg IP, 0.5 h, ± SEM, vehicle 52.9 ± 1.72, * p < 0.05): 39.7 ± 0.99 nM/g
ACh concentration, rat striatum ([3]; 30 mg/kg IP, 0.5 h, ± SEM, * p < 0.05): 37.6 ± 2.10 nM/g
ACh concentration, rat striatum ([3]; 60 mg/kg IP, 0.5 h, ± SEM, * p < 0.05): 41.1 ± 1.89 nM/g
striatal ACh lowering compared with haloperidol (in words) ([3]; IP, haloperidol 2 mg/kg): matched the efficacy of haloperidol
ACh content in brain tissues (in words) ([3]; Tables IV, V and VI): lowers ACh content in brain tissues in a dose dependant and time dependant manner
displacement of 125I-angiotensin II in rat brain areas (in words) ([4]; 1 μM per text, each area of brain examined): displace a fraction of the ^125 I-angiotensin II that is displaced by saralasin
125I-Angiotensin II Bound, Brain Stem ([4]; rat brain stem, antagonist 10 μM, total 2124): 1258 cpm
125I-Angiotensin II Bound, Cerebellum ([4]; rat cerebellum, antagonist 10 μM, total 571): 446 cpm
125I-Angiotensin II Bound, Cortex ([4]; rat cortex, antagonist 10 μM, total 766): 507 cpm
125I-Angiotensin II Bound, Cortical Neurons ([4]; rat cortical neurons, antagonist 10 μM, total 2647): 2118 cpm
125I-Angiotensin II Bound, Striatal Membrane ([4]; rat striatal membrane, antagonist 10 μM, total 2462): 1838 cpm
% Inhibition with 1 μM Antagonist, Corpus luteum [5]: 3%
cyclicity during treatment (in words) ([6]; 30 mg/kg/day, 14 days): acyclic during the 14-day treatment interval
cyclicity posttreatment (in words) ([6]; 20 to 22 days posttreatment): resumed cycling during the posttreatment observation period
Length of cycles ([6]; Post Rx (20 to 22 days posttreatment), vehicle Post Rx 4): 3.9 days
Number of cycles observed ([6]; Post Rx (20 to 22 days posttreatment), vehicle Post Rx 5): 4
Length of cycles ([6]; Rx: 30 mg/kg/day, 14 days, osmotic minipump, vehicle Rx 4.5): 14.4 days
Number of cycles observed ([6]; Rx: 30 mg/kg/day, 14 days, osmotic minipump, vehicle Rx 3): 1
effect on menstrual cycle (in words) ([6]; reproductive studies in rats): interrupts the menstrual cycle
% Inhibition with 1 μM Antagonist, Granulosa cell ([7]; 1 μM, 125I-angiotensin II, adapted from Pucell et al., Endocrinology 1991): 97%
displacement of 125I-angiotensin II, granulosa cells (in words) ([7]; Table IX): displaces nearly all of the 125I-angiotensin II
AT2 antagonism in ovarian cells [8]: AT2 antagonistic properties
ACh, Hippocampus (Table V) [9]: 15.1 ± 1.55 nM/g
Free Water Clearance, Change from Predose ([10]; 60 min, dose 3 intrarenal): +54%
Free Water Clearance, Change from Predose ([10]; 90 min, dose 30 intrarenal): +150%
Free Water Clearance ([10]; 90 min, dose 30 intrarenal, * p = 0.097 vs vehicle): +0.11 ± 0.19 mL/min
Free Water Clearance, Change from Predose ([10]; 120 min, dose 300 intrarenal): +370%
Free Water Clearance ([10]; 120 min, dose 300 intrarenal, ** p = 0.015 vs vehicle): +0.64 ± 0.30 mL/min
Free Water Clearance ([10]; 150 min, postdose (dose 0, after washout), *** p = 0.002 vs vehicle): +0.29 ± 0.10 mL/min
Free water clearance, increase from predose levels ([10]; intrarenal infusion, cumulative doses 3, 30 and 300 μg/kg/min): up to 370%
free water clearance (in words) ([10]; versus vehicle control): increase in free water clearance that is dose dependant and statistically significant when compared to the vehicle control
